Test results taken from paper PMC9147645, “Food-Derived β-Carboline Alkaloids Ameliorate Lipid Droplet Accumulation in Human Hepatocytes” (Pharmaceuticals, 2022).
Read-outs that look alike come from different tables or passages of the source.

How the values were obtained:
HepG2 cells [1] = assay: Cytotoxicity / lipocytotoxicity assay (CCK-8); format: cell-based; settings: HepG2
Procedure: (§1) HepG2 cells were purchased from the American Type Culture Collection (ATCC) (Manassas, VA, USA). High-glucose DMEM containing 10% heat-inactivated FBS and 1% penicillin–streptomycin was maintained under a humidified atmosphere at 37 °C with 5% CO2, as indicated in the Supplementary Materials. HepG2 cells (1.5 × 10^4/well) in DMEM supplemented with 10% FBS were seeded into a 96-well plate. A cytotoxicity assay was performed according to the manufacturer’s protocol using CCK-8 (Dojindo Molecular Technologies), as indicated in the Supplementary Materials (Materials and Methods). […]
(§2) 2 1.2. Cytotoxicity assay […] HepG2 cells (1.5 × 10^4/well) in DMEM supplemented with 10% FBS were under reduced pressure, and H2O (25 ml) was added. Then the solution was seeded into a 96-well plate. The cytotoxicity assay was done using CCK-8 extracted with AcOEt after adjusted to 9–10 with aq. NaOH solution. The organic (Dojindo Molecular Technologies) according to the manufacturer's protocol. […]
(§3) Compounds 1 and 3. To a stirred soln. Compound 10 (218 mg, 1.00 mmol), 5- Technologies, Rockville, USA) according to the manufacturer ’sinstructions. Cell Acetoxymethylfurfural (1, 168 mg, 1.00 mmol) and Nano CuO (7.955 mg, 0.1 suspension (100 μl/well) was inoculated in a 96-well plate (Iwaki, Japan), and mmol) were added 6 ml of DMF. The mixture was stirred at 90℃ for 16 h. The pH once monolayers were observed, treatments were added (n = 3 per each of the aqueous solution was adjusted to 9–10 with aq NaOH solution after adding treatment). Cells were then pre-incubated with the treatments for 24 h before H O. After extracting the solution with AcOEt, the organic layer was washed with assay to determine cell viability.Absorbance was measured at 450 nm using a 2 plate reader (PerkinElmer-ARVO-MX-ID 10533234, Japan). […]
(§4) [5-(hydroxymethyl)-2-furanyl]-1H-pyrido[3,4-b]indole-3-carboxylic acid (2, CAS culture medium was removed from each dish, and cells were washed Registry Number 896466-77-6); flazine methyl ester acetate (3, CAS Registry and rinsed with 1× PBS. Cells were then fixed for 20 min in 10% formalin and Number 104537-95-3); flazin (4, CAS Registry Number 100041-05-2); washed twice using PBS. Then, Oil Red O dye was added to the dishes and incubated for 20 min. Finally, the dye was removed from each dish and cells 5

[2] = Cytotoxicity / lipocytotoxicity assay (CCK-8); format: cell-based; settings: human, HepG2 cells
Procedure: as §1, §2, §3, §4

[3] = tested on: cultured human hepatocytes (C3A); design: method as in earlier work; settings: ref "We have reported"; cited from earlier work
HepG2 cells [4] = assay: Real-time LDAI monitoring (live imaging); format: cell-based, human; settings: HepG2 in DMEM with oleic acid, within 20 h
Procedure: Real-time LDAI monitoring: Morphological changes in HepG2 cells and LDs induced by treatment with 4 were monitored using a Nikon, Hamamatsu Photonics/Ti-E, CCD Camera for 20 h. The cell viability of the control cells was examined by staining with acridine orange (AO)/ethidium bromide (EB) dyes at the end of the experiment (20 h) (Supplementary Materials, Figure S12).

[5] = tested on: nuclear factor erythroid 2-related factor 2 (Nrf2); settings: hepatocytes; ref "We have reported"; cited from earlier work
[6] = HepG2, DMEM loaded with fatty acid (+OA), read-out: Lipocytotoxicity (LC50), concentration at which 50% of cells died
[7] = HepG2, DMEM without fatty acid (−OA), read-out: Cytotoxicity (CC50), concentration at which 50% of cells died

| SMILES | Cytotoxicity (in words) (HepG2 cells [1]) | CC50 at 24 h [2, 6] | CC50 at 24 h [2, 7] | Cytotoxicity [3] | Protection from oxidative damage by AAPH [3] | Accumulated neutral LDs in real-time imaging (HepG2 cells [4]) | Nrf2 activation [5] |
| --- | --- | --- | --- | --- | --- | --- | --- |
| O=C(O)C1Cc2c([nH]c3ccccc23)C(c2ccc(CO)o2)N1 (stereo not shown) [Compound 2, 1,2,3,4-tetrahydro-1-(5-(hydroxymethyl)-2-furanyl)-9H-pyrido [3,4-b]indole-3-carboxylic acid] | no cytotoxicity | 484 µM | > 700 µM | – | – | – | – |
| O=C(O)c1cc2c([nH]c3ccccc32)c(-c2ccc(CO)o2)n1 [Compound 4, flazin] | no cytotoxicity | 600 µM | > 700 µM | without showing any significant cytotoxicity | protects | significantly reduced in number | activated |
